Experimental data reported in ChEMBL document CHEMBL2331100, “Inhibition pattern of sulfamide-related compounds in binding to carbonic anhydrase isoforms I, II, VII, XII and XIV” (Bioorg Med Chem, 2013).

Key:
Carbonic anhydrase 1 = Carbonic anhydrase 1 (Homo sapiens, UniProt P00915); experiment: Inhibition of human carbonic anhydrase 1 preincubated for 15 mins by CO2 hydration stopped-flow assay
Carbonic anhydrase 14 = Carbonic anhydrase 14 (Homo sapiens, UniProt Q9ULX7); experiment: Inhibition of human carbonic anhydrase 14 preincubated for 15 mins by CO2 hydration stopped-flow assay
Carbonic anhydrase 12 = Carbonic anhydrase 12 (Homo sapiens, UniProt O43570); experiment: Inhibition of human carbonic anhydrase 12 preincubated for 15 mins by CO2 hydration stopped-flow assay
Carbonic anhydrase 2 = Carbonic anhydrase 2 (Homo sapiens, UniProt P00918); experiment: Inhibition of human carbonic anhydrase 2 preincubated for 15 mins by CO2 hydration stopped-flow assay
Carbonic anhydrase 7 = Carbonic anhydrase 7 (Homo sapiens, UniProt P43166); experiment: Inhibition of human carbonic anhydrase 7 preincubated for 15 mins by CO2 hydration stopped-flow assay
Carbonic anhydrase 7, sequence (P43166 whole entry): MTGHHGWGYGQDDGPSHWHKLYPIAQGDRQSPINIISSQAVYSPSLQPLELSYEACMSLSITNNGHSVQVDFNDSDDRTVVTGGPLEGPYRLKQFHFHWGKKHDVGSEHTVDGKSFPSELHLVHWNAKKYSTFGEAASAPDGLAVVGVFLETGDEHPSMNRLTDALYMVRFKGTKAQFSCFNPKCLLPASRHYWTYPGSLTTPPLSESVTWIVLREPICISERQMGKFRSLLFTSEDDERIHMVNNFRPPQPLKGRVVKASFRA

Carbonic anhydrase 12, sequence (O43570 whole entry): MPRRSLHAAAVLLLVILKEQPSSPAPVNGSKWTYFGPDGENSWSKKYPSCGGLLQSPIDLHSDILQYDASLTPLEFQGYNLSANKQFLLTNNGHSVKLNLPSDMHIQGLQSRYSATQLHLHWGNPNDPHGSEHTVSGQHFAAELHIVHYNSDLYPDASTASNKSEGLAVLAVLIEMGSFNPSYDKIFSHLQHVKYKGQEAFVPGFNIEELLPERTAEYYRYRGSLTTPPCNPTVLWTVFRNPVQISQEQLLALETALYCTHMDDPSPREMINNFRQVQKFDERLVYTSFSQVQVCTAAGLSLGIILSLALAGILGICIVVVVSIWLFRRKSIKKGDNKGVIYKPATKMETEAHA
Carbonic anhydrase 1, sequence (P00915 whole entry): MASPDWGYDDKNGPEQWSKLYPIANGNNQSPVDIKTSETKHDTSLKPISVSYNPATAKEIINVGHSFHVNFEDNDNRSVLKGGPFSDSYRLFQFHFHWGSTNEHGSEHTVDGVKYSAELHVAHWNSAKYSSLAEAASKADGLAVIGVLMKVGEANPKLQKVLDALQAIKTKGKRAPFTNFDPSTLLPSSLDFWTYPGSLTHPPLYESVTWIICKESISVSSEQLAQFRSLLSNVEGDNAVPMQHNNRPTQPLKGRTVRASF
Carbonic anhydrase 14, sequence (Q9ULX7 whole entry): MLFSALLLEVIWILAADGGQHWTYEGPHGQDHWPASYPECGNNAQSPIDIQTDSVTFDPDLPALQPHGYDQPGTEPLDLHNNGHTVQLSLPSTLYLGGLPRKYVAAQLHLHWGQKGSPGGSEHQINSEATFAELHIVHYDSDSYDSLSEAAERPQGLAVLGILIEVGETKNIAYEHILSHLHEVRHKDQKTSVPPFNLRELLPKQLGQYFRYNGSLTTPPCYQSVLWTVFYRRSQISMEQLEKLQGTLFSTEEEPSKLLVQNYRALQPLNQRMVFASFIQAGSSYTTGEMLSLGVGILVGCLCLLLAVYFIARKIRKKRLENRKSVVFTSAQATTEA

Ki (Carbonic anhydrase 1) [µM]	Ki (Carbonic anhydrase 14) [µM]	Ki (Carbonic anhydrase 12) [µM]	Ki (Carbonic anhydrase 2) [µM]	Ki (Carbonic anhydrase 7) [µM]	Compound
> 200	> 200	> 200	> 200	> 200	O=S(=O)(NCCc1ccccc1)NCCc1ccccc1
> 200	8.37	61.2	> 200	> 200	CCCCNS(=O)(=O)NCCC(=O)OC
8.84	40.4	0.89	161	0.17	CC(C)(C)OC(=O)NS(=O)(=O)NCc1ccccc1
> 200	5.38	54.5	> 200	> 200	COC(=O)[C@H](C)NS(=O)(=O)NC(=O)OC(C)(C)C
> 200	48.8	9.1	135	0.47	O=S(=O)(N1CCOCC1)N1CCOCC1
> 200	5.92	56.3	55.7	> 200	COC(=O)CNS(=O)(=O)NC(=O)OC(C)(C)C
> 200	7.66	> 200	> 200	> 200	COC(=O)[C@H](C)NS(=O)(=O)N[C@@H](C)C(=O)OC

More lines, now with the values behind:

Compound	Ki (Carbonic anhydrase 1) [µM]	Ki (Carbonic anhydrase 14) [µM]	Ki (Carbonic anhydrase 12) [µM]	Ki (Carbonic anhydrase 2) [µM]	Ki (Carbonic anhydrase 7) [µM]
NS(=O)(=O)NCc1ccccc1	0.13	0.84	0.94	0.12	0.3
O=S(=O)(NC1CC1)NC1CC1	> 200	8.79	0.77	> 200	0.16
CCCNS(=O)(=O)NCCC	4.69	> 200	> 200	124	> 200
CCCCN(CCCC)S(=O)(=O)N(CCCC)CCCC	> 200	> 200	> 200	> 200	> 200
CCCN(CCC)S(N)(=O)=O	24.9	7.1	3.53	60.3	> 200
CCCC(CCC)COS(N)(=O)=O	2.98		0.89	1.92	4.3
CCCN(CCC)S(=O)(=O)NC(=O)OC(C)(C)C	6.88		0.91	> 200	0.32
O=S(=O)(NC1CCCCC1)NC1CCCCC1	6.64	9.94	0.7	100	0.32
CCCN(CCC)S(=O)(=O)N(CCC)CCC	9.35		> 200	> 200	> 200
COC(=O)CCNS(=O)(=O)NCCC(=O)OC	> 200		70.8	> 200	> 200
COC(=O)CCNS(=O)(=O)Oc1ccccc1O	88.7	8.53	65	> 200	68.7
COC(=O)[C@@H](NS(=O)(=O)N[C@H](C(=O)OC)C(C)C)C(C)C	> 200		73	> 200	> 200
CCCC(CCC)CN(C(=O)OC(C)(C)C)S(=O)(=O)NCCC(=O)OC	62.2	8.09	65.4	41.1	> 200
O=S(=O)(NCc1ccccc1)NCc1ccccc1 [BENZYL(BENZYLSULFAMOYL)AMINE]	> 200		81.5	0.65	0.38
CCCCNS(=O)(=O)NCCCC [BUTYL(BUTYLSULFAMOYL)AMINE]	6.64	9.79	0.69	66.3	0.41
CCCCCCOS(N)(=O)=O [HEXYL SULFAMATE]	3.66	0.82	0.73	2.82	0.7
